Measured values: the NIST ThermoML archive (doi:10.1021/je700618y)

Experiments:
[1] = xn = mol fraction of the nth substance listed; conditions: 298.15 K, 101 kPa, Liquid; for viscosity: Capillary tube (Ostwald / Ubbelohde) method; for mass density: Vibrating tube method
[2] = refractive index (Na D-line) (dimensionless); xn = mol fraction of the nth substance listed; conditions: 298.15 K, 101 kPa, Liquid, Standard Abbe refractometry
[3] = 298.15 K, 101.33 kPa, Liquid; for viscosity: Capillary tube (Ostwald / Ubbelohde) method
[4] = refractive index (Na D-line) (dimensionless); conditions: 298.15 K; 101.33 kPa; Liquid; Standard Abbe refractometry

COS(=O)(=O)[O-].C[N+](CCO)(CCO)CCO [tris(2-hydroxyethyl) methylammonium methylsulfate] + O
Conditions	mass density, [1] [kg/m3]	refractive index, [2]	viscosity, [1] [mPa·s]
x1 = 0.0478	1129.13	1.38887	2.341
x1 = 0.0967	1195.06	1.41769	5.054
x1 = 0.1939	1258.48	1.44581	16.79
x1 = 0.2421	1275.98	1.4539	27
x1 = 0.2894	1288.49	1.45949	41.22
x1 = 0.3872	1306.02	1.46758	86.07
x1 = 0.4858	1317.49	1.47335	159.5
x1 = 0.6064	1327.14	1.47587	290.1
x1 = 0.6698	1330.96	1.47878	390.7
x1 = 0.7822	1336.36	1.4813	569
x1 = 0.867	1339.64	1.4827	756.2
x1 = 0.9398	1342.07	1.48341	960.7

COS(=O)(=O)[O-].C[N+](CCO)(CCO)CCO [tris(2-hydroxyethyl) methylammonium methylsulfate] + CCO
Conditions	mass density, [1] [kg/m3]	refractive index, [2]	viscosity, [1] [mPa·s]
x1 = 0.0482	876.74	1.3818	2.26
x1 = 0.0981	951.17	1.39899	4.523
x1 = 0.1509	1014.1	1.41373	8.351
x1 = 0.1994	1061.07	1.42476	13.32
x1 = 0.242	1097.16	1.43322	19.62
x1 = 0.2922	1132.75	1.44083	29.16
x1 = 0.3882	1187.8	1.45307	58.72
x1 = 0.4841	1229.34	1.46222	110.8
x1 = 0.5923	1264.46	1.4695	204.3
x1 = 0.6288	1273.93	1.47153	247.6
x1 = 0.6881	1288.67	1.47511	333.6
x1 = 0.7379	1299.19	1.47666	430.4
x1 = 0.7878	1309.46	1.47867	518.1
x1 = 0.8379	1318.78	1.48018	657.1
x1 = 0.8738	1324.39	1.48134	775.7
x1 = 0.9203	1331.87	1.48278	902.1

CCO [ethanol] + O
Conditions	mass density, [1] [kg/m3]	refractive index, [2]	viscosity, [1] [mPa·s]
x2 = 0.048	791.06	1.36013	1.158
x2 = 0.1116	799.08	1.361	1.261
x2 = 0.1599	805.32	1.3615	1.326
x2 = 0.1761	807.44	1.36168	1.36
x2 = 0.2668	820.06	1.36247	1.496
x2 = 0.301	825.06	1.36266	1.556
x2 = 0.3994	840.69	1.36295	1.726
x2 = 0.497	858.26	1.3628	1.932
x2 = 0.6122	882.42	1.36176	2.161
x2 = 0.7116	907.85	1.35974	2.385
x2 = 0.7774	926.61	1.35727	2.353
x2 = 0.8145	937.62	1.3554	2.366
x2 = 0.8529	949.42	1.35243	2.193
x2 = 0.8967	960.95	1.34783	1.92
x2 = 0.9481	976.77	1.34063	1.432

CCO [ethanol]
Conditions	mass density [kg/m3]	refractive index	viscosity [mPa·s]
[3]	785.12	–	1.076
[4]	–	1.35937	–

COS(=O)(=O)[O-].C[N+](CCO)(CCO)CCO [tris(2-hydroxyethyl) methylammonium methylsulfate]
Conditions	refractive index	viscosity [mPa·s]
[3]	–	1236
[4]	1.48489	–

Conditions	mass density [kg/m3]
[3], Vibrating tube method	1344.13
